For six compounds, Activity results are on record in ChEMBL document CHEMBL2073757, “Effect of flavonoids on MRP1-mediated transport in Panc-1 cells” (J Pharm Sci, 2003).

Type in all cases: functional, cell-based
The target of data set [1] is T1, Multidrug resistance-associated protein 1 (Homo sapiens, UniProt P33527). The data set can be described thus: TP_TRANSPORTER: increase in Daunomycin intracellular accumulation (Daunomycin: 0.05 uM, Genistein: 100 uM) in Panc-1 cells. Particulars: panc-1, 100 µM.
Data set [2] has as its target T1, Multidrug resistance-associated protein 1. The data set can be described thus: TP_TRANSPORTER: increase in Vinblastine intracellular accumulation (Vinblastine: 0.05 uM, Genistein: 100 uM) in Panc-1 cells. The note with it: panc-1, 100 µM.
Data set [3] shares this target. Briefly: TP_TRANSPORTER: increase in Vinblastine intracellular accumulation (Vinblastine: 0.05 uM, Chrysin: 100 uM) in Panc-1 cells. Particulars: panc-1, 100 µM.
The target is the same in data set [4]. Briefly: TP_TRANSPORTER: increase in Daunomycin intracellular accumulation (Daunomycin: 0.05 uM, Chrysin: 100 uM) in Panc-1 cells. Particulars: panc-1, 100 µM.
For data set [5] the target is unchanged. The data set can be described thus: TP_TRANSPORTER: increase in Daunomycin intracellular accumulation (Daunomycin: 0.05 uM, Phloretin: 100 uM) in PANC-1 cells. Particulars: panc-1, 100 µM.
For data set [6] the target is unchanged. The data set can be described thus: TP_TRANSPORTER: increase in Vinblastine intracellular accumulation (Vinblastine: 0.05 uM, Phloretin: 100 uM) in PANC-1 cells. The note with it: panc-1, 100 µM.
Data set [7] has the same target. The data set can be described thus: TP_TRANSPORTER: increase in Daunomycin intracellular accumulation (Daunomycin: 0.05 uM, Morin: 100 uM) in Panc-1 cells. Particulars: panc-1, 100 µM.
Data set [8] shares this target. Briefly: TP_TRANSPORTER: increase in Vinblastine intracellular accumulation (Vinblastine: 0.05 uM, Morin: 100 uM) in Panc-1 cells. Particulars: panc-1, 100 µM.
Data set [9] has the same target. The data set can be described thus: TP_TRANSPORTER: increase in Vinblastine intracellular accumulation (Vinblastine: 0.05 uM, Silymarin: 100 uM) in Panc-1 cells. Particulars: panc-1, 100 µM.
Data set [10] has the same target. The data set can be described thus: TP_TRANSPORTER: increase in Daunomycin intracellular accumulation (Daunomycin: 0.05 uM, Silymarin: 100 uM) in Panc-1 cells. Particulars: panc-1, 100 µM.
The target is the same in data set [11]. Briefly: TP_TRANSPORTER: increase in Daunomycin intracellular accumulation (Daunomycin: 0.05 uM, BiochaninA: 100 uM) in Panc-1 cells. The note with it: panc-1, 100 µM.
The target is the same in data set [12]. Briefly: TP_TRANSPORTER: increase in Vinblastine intracellular accumulation (Vinblastine: 0.05 uM, BiochaninA: 101 uM) in Panc-1 cells. Particulars: panc-1, 101 µM.

T1 sequence (P33527 whole entry): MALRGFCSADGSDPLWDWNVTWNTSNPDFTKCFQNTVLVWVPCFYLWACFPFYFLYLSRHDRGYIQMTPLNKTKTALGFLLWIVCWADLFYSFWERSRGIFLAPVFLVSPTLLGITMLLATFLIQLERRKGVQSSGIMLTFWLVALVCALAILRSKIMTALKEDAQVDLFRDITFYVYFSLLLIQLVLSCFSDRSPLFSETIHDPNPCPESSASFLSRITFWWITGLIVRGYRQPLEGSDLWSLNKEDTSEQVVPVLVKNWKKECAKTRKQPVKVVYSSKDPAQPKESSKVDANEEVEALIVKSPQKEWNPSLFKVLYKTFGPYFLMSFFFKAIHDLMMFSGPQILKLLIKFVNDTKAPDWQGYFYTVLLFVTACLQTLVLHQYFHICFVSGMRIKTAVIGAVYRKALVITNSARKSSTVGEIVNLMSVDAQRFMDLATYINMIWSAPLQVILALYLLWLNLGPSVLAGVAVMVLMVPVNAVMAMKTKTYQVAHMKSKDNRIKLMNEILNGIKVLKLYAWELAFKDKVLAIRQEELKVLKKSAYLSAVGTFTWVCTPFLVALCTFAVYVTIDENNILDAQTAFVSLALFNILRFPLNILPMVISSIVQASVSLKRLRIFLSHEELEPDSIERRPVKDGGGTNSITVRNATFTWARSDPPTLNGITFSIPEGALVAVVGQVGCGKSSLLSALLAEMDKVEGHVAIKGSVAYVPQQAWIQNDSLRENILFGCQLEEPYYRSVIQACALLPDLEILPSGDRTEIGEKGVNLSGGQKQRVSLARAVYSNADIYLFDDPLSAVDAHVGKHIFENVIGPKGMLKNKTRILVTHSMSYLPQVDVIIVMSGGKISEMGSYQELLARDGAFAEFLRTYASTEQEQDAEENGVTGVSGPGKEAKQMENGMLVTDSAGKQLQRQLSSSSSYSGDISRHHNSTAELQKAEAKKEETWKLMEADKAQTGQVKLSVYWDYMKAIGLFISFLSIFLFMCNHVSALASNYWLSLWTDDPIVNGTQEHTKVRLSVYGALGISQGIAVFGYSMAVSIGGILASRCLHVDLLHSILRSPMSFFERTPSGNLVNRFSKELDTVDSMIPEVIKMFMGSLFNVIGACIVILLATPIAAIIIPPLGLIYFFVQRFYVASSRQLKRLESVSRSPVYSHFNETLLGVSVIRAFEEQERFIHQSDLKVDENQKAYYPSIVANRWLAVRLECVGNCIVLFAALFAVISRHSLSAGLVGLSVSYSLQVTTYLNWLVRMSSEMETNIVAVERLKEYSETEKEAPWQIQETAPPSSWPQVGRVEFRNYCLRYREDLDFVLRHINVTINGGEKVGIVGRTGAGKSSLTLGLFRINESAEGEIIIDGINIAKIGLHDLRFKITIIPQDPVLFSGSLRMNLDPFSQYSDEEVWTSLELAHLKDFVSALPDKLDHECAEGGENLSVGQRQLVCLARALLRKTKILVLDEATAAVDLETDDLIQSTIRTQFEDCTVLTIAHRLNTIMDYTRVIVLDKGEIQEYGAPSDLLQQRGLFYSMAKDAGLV

Take `O=c1c(-c2ccc(O)cc2)coc2cc(O)cc(O)c12` [GENISTEIN]: the figures for the Activity in [1] and in data set [2] were 156% and 191%, respectively.
With `O=c1cc(-c2ccccc2)oc2cc(O)cc(O)c12` [CHRYSIN], the values for the Activity in data set [3] and in [4] were 180% and 198%, respectively.
Turning to `O=C(CCc1ccc(O)cc1)c1c(O)cc(O)cc1O` [PHLORETIN], the Activity in data set [5] was 295%; in data set [6] it was 251%.
Regarding `O=c1c(O)c(-c2ccc(O)cc2O)oc2cc(O)cc(O)c12` [MORIN], the Activity was 546% in data set [7] and 553% in [8].
On to SILYMARIN, for which the Activity in [9] is reported as 329%; in data set [10], 305%.
`COc1ccc(-c2coc3cc(O)cc(O)c3c2=O)cc1` [BIOCHANIN]: the Activity in data set [11] was 178%; in data set [12], 330%.
